Results: patent US9789111B2, “Casein kinase 1δ (CK 1δ) inhibitors” (Electrophoretics Limited, priority 2010, dated 2017)

Experiments:
Experiment in all cases: kinase inhibition assay panel
Type in all cases: biochemical
[1] = target: GSK3b (Homo sapiens, UniProt P49841)
Description: (§1) Base Reaction buffer; 20 mM Hepes (pH 7.5), 10 mM MgCl2, 1 mM EGTA, 0.02% Brij35, 0.02 mg/ml BSA, 0.1 mM Na3VO4, 2 mM DTT, 1% DMSO
(§2) It should be noted that required cofactors are added individually to each kinase reaction.
(§3) • 1. Prepare indicated substrate in freshly prepared Base Reaction Buffer as described above • 2. Deliver any required cofactors to the substrate solution • 3. Deliver indicated kinase into the substrate solution and gently mix • 4. Deliver compounds in DMSO into the kinase reaction mixture • 5. Deliver ^33P-ATP (specific activity 0.01 μCi/μl final) into the reaction mixture to initiate the reaction • 6. Incubate kinase reaction for 120 min. at room temperature • 7. Reactions are spotted onto P81 ion exchange paper (Whatman #3698-915) • 8. Wash filters extensively in 0.75% Phosphoric acid Kinase Information: • CK1δ—Genbank Accession # NP_620693 • Recombinant human full-length construct. GST-tagged, expressed in insect cells. • Final concentration in assay=4 nM • Substrate: CK1tide • Substrate sequence: [KRRRAL[pS]VASLPGL] • Final substrate concentration in assay=20 μM • It should be noted that no additional cofactors are added to the reaction mixture.

[2] = target: KDR/VEGFR2 (Homo sapiens, UniProt P35968)
Description: as §1, §2, §3

[3] = target: ROCK1 (Homo sapiens, UniProt Q13464)
Description: as §1, §2, §3

[4] = target: HGK/MAP4K4 (Homo sapiens, UniProt O95819)
Description: as §1, §2, §3

[5] = target: PIM3 (Homo sapiens, UniProt Q86V86)
Description: as §1, §2, §3

[6] = target: ABL2/ARG (Homo sapiens, UniProt P42684)
Description: as §1, §2, §3

[7] = target: PKCb2 (Homo sapiens, UniProt P05771)
Description: as §1, §2, §3

[8] = target: CDK5/p25 (Homo sapiens, UniProt Q00535)
Description: as §1, §2, §3

[9] = target: T1, PDK1/PDPK1 (Homo sapiens, UniProt O15530)
T1 sequence (O15530 1-556): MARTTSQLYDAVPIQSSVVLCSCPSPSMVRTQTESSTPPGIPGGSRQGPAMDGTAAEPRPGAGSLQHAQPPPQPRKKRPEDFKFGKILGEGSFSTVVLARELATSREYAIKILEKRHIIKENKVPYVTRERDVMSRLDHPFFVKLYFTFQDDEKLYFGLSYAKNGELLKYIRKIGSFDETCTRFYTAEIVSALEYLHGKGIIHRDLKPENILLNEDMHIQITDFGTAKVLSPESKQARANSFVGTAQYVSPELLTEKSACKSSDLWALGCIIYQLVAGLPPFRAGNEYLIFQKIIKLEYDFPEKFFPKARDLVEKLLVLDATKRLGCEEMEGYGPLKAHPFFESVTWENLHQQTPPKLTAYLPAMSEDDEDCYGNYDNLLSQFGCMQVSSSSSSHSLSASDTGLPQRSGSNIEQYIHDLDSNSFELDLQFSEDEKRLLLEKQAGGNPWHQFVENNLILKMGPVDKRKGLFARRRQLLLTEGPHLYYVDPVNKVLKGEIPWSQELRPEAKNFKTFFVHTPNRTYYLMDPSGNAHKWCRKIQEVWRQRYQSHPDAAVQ
Description: as §1, §2, §3

[10] = target: TNIK (Homo sapiens, UniProt Q9UKE5)
Description: as §1, §2, §3

[11] = target: LCK (Homo sapiens, UniProt P06239)
Description: as §1, §2, §3

[12] = target: PKCa (Homo sapiens, UniProt P17252)
Description: as §1, §2, §3

[13] = target: MSK1/RPS6KA5 (Homo sapiens, UniProt O75582)
Description: as §1, §2, §3

[14] = target: c-SRC (Homo sapiens, UniProt P12931)
Description: as §1, §2, §3

[15] = target: CK1g2 (Homo sapiens, UniProt P78368)
[16] = target: ALK4/ACVR1B (Homo sapiens, UniProt P36896)
Description: as §1, §2, §3

[17] = target: PKA (Homo sapiens, UniProt P17612)
Description: as §1, §2, §3

[18] = target: RIPK2 (Homo sapiens, UniProt O43353)
Description: as §1, §2, §3

[19] = target: EPHA2 (Homo sapiens, UniProt P29317)
Description: as §1, §2, §3

[20] = target: YES/YES1 (Homo sapiens, UniProt P07947)
Description: as §1, §2, §3

[21] = target: CK1a1 (Homo sapiens, UniProt P48729)
[22] = target: EGFR (Homo sapiens, UniProt P00533)
[23] = target: ALK5/TGFBR1 (Homo sapiens, UniProt P36897)

ABL2/ARG, sequence (P42684 whole entry): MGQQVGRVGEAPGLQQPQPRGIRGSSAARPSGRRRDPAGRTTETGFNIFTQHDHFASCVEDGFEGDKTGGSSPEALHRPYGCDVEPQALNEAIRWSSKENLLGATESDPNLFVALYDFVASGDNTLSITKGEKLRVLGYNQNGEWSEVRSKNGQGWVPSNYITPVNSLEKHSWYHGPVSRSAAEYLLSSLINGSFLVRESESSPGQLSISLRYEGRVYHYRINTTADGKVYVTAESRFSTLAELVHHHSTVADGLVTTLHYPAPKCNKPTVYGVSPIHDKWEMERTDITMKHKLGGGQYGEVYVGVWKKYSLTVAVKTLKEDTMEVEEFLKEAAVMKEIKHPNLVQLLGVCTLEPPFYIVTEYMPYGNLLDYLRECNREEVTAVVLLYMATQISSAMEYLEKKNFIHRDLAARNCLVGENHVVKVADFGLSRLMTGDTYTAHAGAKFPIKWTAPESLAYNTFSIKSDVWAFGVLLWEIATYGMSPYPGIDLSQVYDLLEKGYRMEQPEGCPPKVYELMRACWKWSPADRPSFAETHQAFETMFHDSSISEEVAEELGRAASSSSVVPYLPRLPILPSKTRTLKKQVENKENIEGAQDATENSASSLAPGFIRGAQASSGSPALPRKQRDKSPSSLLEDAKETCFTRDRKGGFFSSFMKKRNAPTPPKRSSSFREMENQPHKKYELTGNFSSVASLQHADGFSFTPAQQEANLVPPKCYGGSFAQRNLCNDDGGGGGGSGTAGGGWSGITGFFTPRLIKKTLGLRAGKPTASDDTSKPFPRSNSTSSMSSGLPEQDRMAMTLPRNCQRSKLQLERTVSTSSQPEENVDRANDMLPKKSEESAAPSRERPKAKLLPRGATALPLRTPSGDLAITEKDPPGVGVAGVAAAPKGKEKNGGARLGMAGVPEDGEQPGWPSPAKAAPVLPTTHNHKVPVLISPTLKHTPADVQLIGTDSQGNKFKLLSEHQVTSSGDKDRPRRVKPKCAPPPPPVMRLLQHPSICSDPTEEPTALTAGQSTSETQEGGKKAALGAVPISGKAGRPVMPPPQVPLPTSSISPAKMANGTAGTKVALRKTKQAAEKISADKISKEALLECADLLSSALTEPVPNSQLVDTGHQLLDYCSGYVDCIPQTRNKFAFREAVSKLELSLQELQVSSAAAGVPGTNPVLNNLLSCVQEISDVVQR
ROCK1, sequence (Q13464 whole entry, species assumed): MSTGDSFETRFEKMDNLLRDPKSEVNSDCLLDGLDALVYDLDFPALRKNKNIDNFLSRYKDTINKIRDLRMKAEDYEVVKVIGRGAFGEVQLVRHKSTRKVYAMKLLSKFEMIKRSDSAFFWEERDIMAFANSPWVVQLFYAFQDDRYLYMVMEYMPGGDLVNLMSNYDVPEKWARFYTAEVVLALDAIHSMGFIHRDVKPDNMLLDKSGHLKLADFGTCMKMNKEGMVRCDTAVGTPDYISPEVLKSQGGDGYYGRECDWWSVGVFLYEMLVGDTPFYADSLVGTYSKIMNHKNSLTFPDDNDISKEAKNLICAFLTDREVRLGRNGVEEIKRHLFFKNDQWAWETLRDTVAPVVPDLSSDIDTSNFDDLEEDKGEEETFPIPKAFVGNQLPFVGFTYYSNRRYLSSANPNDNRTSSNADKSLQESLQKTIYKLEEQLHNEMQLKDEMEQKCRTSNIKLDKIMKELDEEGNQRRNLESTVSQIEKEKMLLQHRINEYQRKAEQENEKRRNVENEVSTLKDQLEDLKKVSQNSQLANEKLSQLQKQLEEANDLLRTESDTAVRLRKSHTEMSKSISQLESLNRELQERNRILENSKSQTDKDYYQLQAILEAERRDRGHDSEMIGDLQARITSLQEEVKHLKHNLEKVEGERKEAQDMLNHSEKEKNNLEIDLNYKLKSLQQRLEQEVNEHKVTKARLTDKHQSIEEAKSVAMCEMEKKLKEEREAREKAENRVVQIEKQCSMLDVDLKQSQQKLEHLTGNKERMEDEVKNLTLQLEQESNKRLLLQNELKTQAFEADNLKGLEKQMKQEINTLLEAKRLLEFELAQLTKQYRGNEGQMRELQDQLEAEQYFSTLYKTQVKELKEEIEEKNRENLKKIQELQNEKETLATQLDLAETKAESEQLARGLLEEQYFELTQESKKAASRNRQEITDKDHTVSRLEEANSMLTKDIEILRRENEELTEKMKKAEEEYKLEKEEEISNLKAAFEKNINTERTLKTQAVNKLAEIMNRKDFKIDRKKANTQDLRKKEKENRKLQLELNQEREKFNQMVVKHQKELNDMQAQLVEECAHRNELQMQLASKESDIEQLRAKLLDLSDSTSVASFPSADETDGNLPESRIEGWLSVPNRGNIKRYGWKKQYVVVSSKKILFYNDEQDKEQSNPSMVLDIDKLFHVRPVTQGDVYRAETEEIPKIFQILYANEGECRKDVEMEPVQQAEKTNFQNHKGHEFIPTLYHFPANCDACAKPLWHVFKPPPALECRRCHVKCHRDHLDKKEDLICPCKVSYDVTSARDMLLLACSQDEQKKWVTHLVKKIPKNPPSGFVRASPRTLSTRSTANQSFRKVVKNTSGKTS
PKCb2, sequence (P05771 1-673 isoform P05771-2): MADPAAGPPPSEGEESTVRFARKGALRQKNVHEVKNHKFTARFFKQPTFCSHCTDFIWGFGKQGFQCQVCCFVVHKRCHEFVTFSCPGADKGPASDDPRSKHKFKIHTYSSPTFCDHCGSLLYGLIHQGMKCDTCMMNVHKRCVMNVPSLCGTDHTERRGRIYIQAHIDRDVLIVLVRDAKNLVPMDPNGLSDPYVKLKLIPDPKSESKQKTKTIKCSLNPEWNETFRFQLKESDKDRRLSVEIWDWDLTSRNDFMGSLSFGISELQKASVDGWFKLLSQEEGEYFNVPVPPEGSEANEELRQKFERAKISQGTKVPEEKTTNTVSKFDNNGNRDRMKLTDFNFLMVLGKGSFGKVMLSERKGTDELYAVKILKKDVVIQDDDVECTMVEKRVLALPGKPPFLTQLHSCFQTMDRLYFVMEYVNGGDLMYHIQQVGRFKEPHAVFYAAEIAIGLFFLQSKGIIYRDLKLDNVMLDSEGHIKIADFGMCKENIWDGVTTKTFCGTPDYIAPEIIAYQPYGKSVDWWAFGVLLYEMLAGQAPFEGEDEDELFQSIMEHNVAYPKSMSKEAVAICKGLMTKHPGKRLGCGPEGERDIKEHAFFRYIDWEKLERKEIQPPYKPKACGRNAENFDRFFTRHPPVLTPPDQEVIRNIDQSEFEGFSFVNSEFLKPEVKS
HGK/MAP4K4, sequence (O95819 whole entry): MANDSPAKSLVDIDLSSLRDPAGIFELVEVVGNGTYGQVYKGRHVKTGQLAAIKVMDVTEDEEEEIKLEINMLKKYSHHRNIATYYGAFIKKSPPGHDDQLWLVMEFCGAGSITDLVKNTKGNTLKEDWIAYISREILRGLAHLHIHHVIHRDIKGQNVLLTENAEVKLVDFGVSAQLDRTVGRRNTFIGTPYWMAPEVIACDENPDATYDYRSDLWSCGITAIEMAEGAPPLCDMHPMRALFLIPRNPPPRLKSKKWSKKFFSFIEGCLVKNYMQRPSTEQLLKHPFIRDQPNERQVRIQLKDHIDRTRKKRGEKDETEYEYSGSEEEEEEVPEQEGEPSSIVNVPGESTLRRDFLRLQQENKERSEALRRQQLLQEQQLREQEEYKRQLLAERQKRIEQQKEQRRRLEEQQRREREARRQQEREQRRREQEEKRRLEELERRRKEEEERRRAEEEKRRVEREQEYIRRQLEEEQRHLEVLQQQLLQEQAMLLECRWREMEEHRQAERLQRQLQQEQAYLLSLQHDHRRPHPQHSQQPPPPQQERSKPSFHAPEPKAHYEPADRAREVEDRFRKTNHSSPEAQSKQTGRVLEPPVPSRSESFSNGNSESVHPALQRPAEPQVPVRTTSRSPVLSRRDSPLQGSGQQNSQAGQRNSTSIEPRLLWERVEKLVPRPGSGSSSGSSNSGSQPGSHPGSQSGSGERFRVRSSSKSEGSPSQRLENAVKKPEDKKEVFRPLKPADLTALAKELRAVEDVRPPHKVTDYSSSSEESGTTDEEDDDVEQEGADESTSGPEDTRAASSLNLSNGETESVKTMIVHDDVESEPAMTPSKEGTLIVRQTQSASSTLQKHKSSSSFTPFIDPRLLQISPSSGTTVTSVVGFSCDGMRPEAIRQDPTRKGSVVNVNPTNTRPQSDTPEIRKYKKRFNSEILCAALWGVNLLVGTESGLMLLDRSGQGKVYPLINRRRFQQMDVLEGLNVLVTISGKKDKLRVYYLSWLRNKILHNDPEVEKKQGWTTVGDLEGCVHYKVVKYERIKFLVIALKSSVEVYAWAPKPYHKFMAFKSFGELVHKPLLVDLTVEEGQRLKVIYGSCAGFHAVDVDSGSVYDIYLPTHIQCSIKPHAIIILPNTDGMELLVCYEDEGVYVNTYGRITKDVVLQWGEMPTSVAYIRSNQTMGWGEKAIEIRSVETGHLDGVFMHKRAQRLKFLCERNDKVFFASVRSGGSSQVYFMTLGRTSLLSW

NC(=O)c1c(N)c(C(=O)c2ccc(F)cc2)n2ccccc12 [Compound 987, 2-amino-3-[(4-fluorophenyl)carbonyl]indolizine-1-carboxamide]
lower than 40%: inhibition of GSK3b [1] | inhibition of KDR/VEGFR2 [2] | inhibition of ROCK1 [3] | inhibition of HGK/MAP4K4 [4] | inhibition of PIM3 [5] | inhibition of ABL2/ARG [6] | inhibition of PKCb2 [7] | inhibition of CDK5/p25 [8] | inhibition of PDK1/PDPK1 [9] | inhibition of TNIK [10] | inhibition of LCK [11] | inhibition of PKCa [12] | inhibition of MSK1/RPS6KA5 [13] | inhibition of c-SRC [14] | inhibition of CK1g2 [15]

Nc1ncc(-c2nc3ccccc3o2)c(-c2ccncc2)n1 [Compound 324, 5-(1,3-benzoxazol-2-yl)-4-(pyridin-4-yl)pyrimidin-2-amine]
lower than 40%: inhibition of GSK3b [1] | inhibition of KDR/VEGFR2 [2] | inhibition of ROCK1 [3] | inhibition of ALK4/ACVR1B [16] | inhibition of PKA [17] | inhibition of HGK/MAP4K4 [4] | inhibition of PIM3 [5] | inhibition of ABL2/ARG [6] | inhibition of RIPK2 [18] | inhibition of PKCb2 [7] | inhibition of EPHA2 [19] | inhibition of CDK5/p25 [8] | inhibition of PDK1/PDPK1 [9] | inhibition of TNIK [10] | inhibition of LCK [11] | inhibition of PKCa [12] | inhibition of MSK1/RPS6KA5 [13] | inhibition of c-SRC [14] | inhibition of YES/YES1 [20] | inhibition of CK1a1 [21] | inhibition of EGFR [22] | inhibition of ALK5/TGFBR1 [23]
